{"source": "patent US10440974B2", "about": "“Methionine-rich composition for feeding animals” (Evonik Degussa GmbH, priority 2009, dated 2019)", "key": {"physchem": {"assay": "physchem", "from_the_text": "The third step consists in crystallizing the methionine so as to recover the crude methionine in solid form. This crystallization step can be carried out by means of technology chosen from the group consisting of crystallization by cooling, crystallization by evaporation-crystallization and adiabatic crystallization. The applicant company recommends using evaporation-crystallization. If evaporation-crystallization is selected, the applicant company recommends pre-concentrating the crude methionine solution by vacuum evaporation using a falling-film evaporator in order to approach supersaturation. The pre-concentrated solution is therefore transferred into a crystallizer of Draft tube type, for example, so as to be further concentrated and crystallized therein. […] Under these conditions, and by virtue of the removal of the soluble impurities, the solid methionine crystallizes in the form of spongy spheres which are easy to separate from the mother liquors."}, "broiler chickens": {"tested_on": "broiler chickens", "protocol": "The crude methionine previously obtained in solid form is added to a basic feed for broiler chickens.\nThe basic feed has the following composition:\nThe animals are divided up into groups and fed with the basic feed as control, or with a feed supplemented with crude methionine according to the invention, and then weighed at 1 day, 14 days and 28 days."}}}
{"compound": "CSCC[C@H](N)C(=O)O", "note": "[methionine, L-Methionine]", "values": [{"measurement": "solubility", "setting": "physchem; 35 °C", "result": "~70", "unit": "mg/mL"}, {"measurement": "supersaturation", "setting": "physchem; at 50° C.", "result": 80, "unit": "g/L"}]}
{"compound": "CSCCC(N)C(=O)O", "note": "(racemic) [DL-methionine of chemical origin, DL-methionine]", "values": [{"measurement": "optimum efficiency, added methionine", "setting": "broiler chickens; added to basic feed", "result": "approximately 0.19%"}, {"measurement": "optimum efficiency, methionine in the final feed", "setting": "broiler chickens; basic feed has a methionine content of about 0.29%", "result": "approximately 0.48%"}]}
